Test results published in patent US6693123B2 (University of Pittsburgh, priority 1995, dated 2004).
Structures can show the parent of a compound that is named as a salt.

Target: T1, Rat brain protein farnesyltransferase (Rattus norvegicus, UniProt Q02293+Q04631)
T1 construct: The enzyme is purified according to Reiss, Y., et al., Cell, 62: 81-88 (1990), utilizing steps one through three; from tissue; host or cells: rat brain
Experiment: In vitro inhibition of protein farnesyltransferase, Amersham scintillation proximity assay with biotin-K Ras B fragment
Format: biochemical
Details: Inhibition of farnesyltransferase; compound at 0.01 μM (Table 6, values marked **); read-out: % inhibition at 0.01 μM

Row | inhibition at 0.01 µM | Compound
1 | 83% | CCCOc1ccncc1C=Cc1ccc(C(=O)N[C@@H](CCSC)C(=O)O)c(-c2ccccc2C)c1 [Example 1362, N-[4-(2-(4-Propyloxypyridin-3-yl)ethenyl)-2-(2-methylphenyl)benzoyl]methionine Sodium Salt]
2 | 88% | CSCC[C@H](NC(=O)c1ccc(C=Cc2cnccc2OCc2cc(F)cc(F)c2)cc1-c1ccccc1C)C(=O)O [Example 1363, N-[4-(2-(4-(3,5-Difluorobenzyl)oxypyridin-3-yl)ethenyl)-2-(2-methylphenyl)benzoyl]methionine Sodium Salt]

Same assay, conditions: Inhibition of farnesyltransferase; compound at 0.1 μM (Table 6, values marked *); read-out: % inhibition at 0.1 μM

Row | inhibition at 0.1 µM | Compound
3 | 96% | COc1ccncc1C=Cc1ccc(C(=O)N[C@@H](CCSC)C(=O)O)c(-c2ccccc2C)c1 [Example 1361, N-[4-(2-(4-Methoxypyridin-3-yl)ethenyl)-2-(2-methylphenyl)benzoyl]methionine Sodium Salt]

Same assay, conditions: Inhibition of farnesyltransferase; compound at 1 × 10^−6 M (Table 2)

Row | Compound | % inhibition at 1 × 10^−6 M
4 | N-[4-(3-Imidazol-1-ylprolpylaminosulfonyl)-2-phenylbenzoyl]methionine Lithium Salt [Example 777] | 83%
5 | [4-(3-Pyridyloxymethyl)-2-(2-chlorophenyl)benzoyl]methionine Methyl Ester [Example 305] | 99%
6 | [4-(3-Pyridyloxymethyl)-2-(2-ethylphenyl)benzoyl]methionine Methyl Ester [Example 306] | 99%
7 | [4-(3-Pyridyloxymethyl)-2-phenylbenzoyl]cysteine Disodium Salt [Example 188] | 40%
8 | {4-[2-(3-Pyridy)-2-hydroxyethyl]-2-phenylbenzoyl]methionine Sodium Salt and {4-[2-(3-Pyridy)-1-hydroxyethyl]-2-phenylbenzoyl}methionine Sodium Salt [Example 284] | 83%
9 | {4-[2-(Pyrid-3-yl)ethenyl]-2-(2-methylphenyl)benzyl}methionine Butyl Ester [Example 292] | 36%

Same assay, conditions: Inhibition of farnesyltransferase; compound at 1 × 10^−6 M (Table 2); read-out: % inhibition at 1 × 10^−6 M

Row | inhibition at 1 µM | Compound
10 | 97% | CCc1cc(C(=O)N[C@@H](CCSC)C(=O)O)c(-c2ccccc2C)cc1COc1cccnc1 [Example 918, N-[5-Ethyl-4-(pyrid-3-yloxymethyl)-2-(2-methylphenyl)benzoyl]methionine]
11 | 69% | CSCCCNC(=O)c1ccc(CN(Cc2ccccc2)c2cccnc2)cc1-c1ccccc1C [Example 926, 3-Methylthiopropyl N-4-(N-Pyrid-3-yl-N-benzylaminomethyl)-2-(2-methylphenyl)benzamide]

Same assay, conditions: Inhibition of farnesyltransferase; compound at 1 × 10^−7 M (Table 3); read-out: % inhibition at 1 × 10^−7 M

Row | inhibition at 0.1 µM | Compound
12 | 81% | CSCCC(OC(=O)c1ccc(/C=C/c2cccnc2)cc1-c1ccccc1C)C(=O)O (stereo not shown) [Example 814, 2-[4-(2-Pyrid-3-ylethen-1-yl)-2-(2-methylphenyl)benzoyl]oxy-4-methylthiobutanoic Acid]
13 | 71% | CSCC[C@H](NC(=O)c1ccc(CCc2cccnc2)cc1-c1ccccc1C)/C(=N/O)NO [Example 815, N-[4-(2-Pyrid-3-yleth-1-yl)-2-(2-methylphenyl)benzoyl]methionine N,N-Dihydroxyamidine]
14 | 95% | CSCC[C@H](NC(=O)c1ccc(C#Cc2cccnc2)cc1-c1ccccc1C)C(=O)O [Example 865, N-[4-(2-Pyrid-3-ylethyn-1-yl)-2-(2-methylphenyl)benzoyl]methionine]
15 | 91% | CCCCCc1cc(C(=O)N[C@@H](CCSC)C(=O)O)c(-c2ccccc2C)cc1COc1cccnc1 [Example 919, N-[5-Pentyl-4-(pyrid-3-yloxymethyl)-2-(2-methylphenyl)benzoyl]methionine]
16 | 82% | CSCC[C@H](NC(=O)c1cc(CC2CCCCC2)c(COc2cccnc2)cc1-c1ccccc1C)C(=O)O [Example 921, N-[5-Cyclohexylmethyl-4-(pyrid-3-yloxymethyl)-2-(2-methylphenyl)benzoyl]methionine]

Same assay, conditions: Inhibition of farnesyltransferase; compound at 1 × 10^−8 M (Table 4); read-out: % inhibition at 1 × 10^−8 M

Row | inhibition at 0.01 µM | Compound
17 | 94% | CSCC[C@H](NC(=O)c1ccc(COc2cccnc2)cc1-c1ccc(F)cc1Cl)C(=O)O [Example 871, N-[4-(Pyrid-3-yloxymethyl)-2-(2-chloro-4-fluorophenyl)benzoyl]methionine]
18 | 97% | CSCC[C@H](NC(=O)c1ccc(CN(Cc2ccccc2)c2cccnc2)cc1-c1ccc(F)cc1Cl)C(=O)O [Example 873, N-(4-(N-Benzyl-N-pyrid-3-ylaminomethyl)-2-(2-chloro-4-fluorophynel)beonzoyl)methionine]
19 | 96% | CSCC[C@H](NC(=O)c1cc(Cc2ccccc2)c(CN(Cc2ccccc2)c2cccnc2)cc1-c1ccccc1C)C(=O)O [Example 920, N-[5-Benzyl-4-(N-pyrid-3-yl-N-benzylaminomethyl)-2-(2-metbylphenyl)benzoyl]methionine]
20 | 96% | CSCC[C@H](NC(=O)c1cc(CCc2ccccc2)c(COc2cccnc2)cc1-c1ccccc1C)C(=O)O [Example 922, N-[5-(2-Phenylethyl)-4-(pyrid-3-yloxymethyl)-2-(2-methylphenyl)benzoyl]methionine]
21 | > 50% | CSCC[C@H](NC(=O)c1ccc(CNCc2c[nH]cn2)cc1-c1ccccc1C)C(=O)O [Example 954, N-[4-(Imidazol-4-ylmethylaminomethyl)-2-(2-methylphenyl)benzoyl]methionine]
22 | > 50% | CSCC[C@H](NC(=O)c1ccc(OCCn2ccnc2)cc1-c1ccccc1)C(=O)O [Example 958, N-[4-(2-Imidazol-1-ylethoxy)-2-phenylbenzoyl]methionine]

Same assay, conditions: read-out: % inhibition at 0.01 μM

Row | Compound | inhibition at 0.01 µM
23 | CSCC[C@H](NC(=O)c1ccc(C=Cc2cnccc2O)cc1-c1ccccc1C)C(=O)O [Example 1039, N-[4-(2-(4-Hydroxypyridin-3-yl)ethenyl)-2-(2-methylphenyl)benzoyl]methionine Lithium Salt] | 89%
24 | CSCC[C@H](NC(=O)c1ccc(/C=C/c2cnccc2Cl)cc1-c1ccccc1C)C(=O)O [Example 1040, N-[4-(2-(4-Chloropyridin-3-yl)ethenyl)-2-(2-methylphenyl)benzoyl]methionine Lithium Salt] | 90%
25 | CSCC[C@H](NC(=O)c1ccc(/C=C(\C#N)c2cccnc2)cc1-c1ccccc1C)C(=O)O [Example 1076, N-[4-(Z-2-Cyano-2-pyrid-3-ylethenyl)-2-(2-methylphenyl)benzoyl]methionine, Lithium Salt] | 69%
26 | CSCC[C@H](NC(=O)c1ccc(/C=C(/C(=O)OC(C)(C)C)c2cccnc2)cc1-c1ccccc1C)C(=O)O [Example 1077, N-[4-(E-2-t-Butoxycarbonyl-2-pyrid-3-ylethenyl)-2-(2-methylphenyl)benzoyl]methionine, Lithium Salt] | 93%
27 | CSCC[C@H](NC(=O)c1ccc(CN(Cc2cccnc2)Cc2cc(F)cc(F)c2)cc1-c1ccccc1C)C(=O)O [Example 1286, N-[4-N-(N-(3-Pyridylmethyl)-N-(3,5-difluorobenzyl)aminomethyl)-2-(2-methylphenyl)benzoyl]methionine Lithium Salt] | 85%
28 | CSCC[C@H](NC(=O)c1ccc(CN(Cc2cccnc2)c2cc(F)cc(F)c2)cc1-c1ccccc1C)C(=O)O [Example 1287, N-[4-N-(N-3,5-Difluorophenyl-N-(3-pyridylmethyl)aminomethyl)-2-(2-methylphenyl)benzoyl]methionine Lithium Salt] | 95%
29 | CSCC[C@H](NC(=O)c1ccc(CN(CCCn2ccnc2)Cc2cc(F)cc(F)c2)cc1-c1ccccc1C)C(=O)O [Example 1298, N-[4-N-(N-(3-(1-Imidazole)-propyl)-N-(3,5-difluorobenzyl)aminomethyl)-2-(2-methylphenyl)benzoyl]methionine Lithium Salt] | 97%
30 | CSCC[C@H](NC(=O)c1ccc(CN(Cc2cc(F)cc(F)c2)c2cccnc2)cc1-c1ccccc1C)C(=O)O [Example 1360, N-[4-N-3,5-Difluorobenzyl-N-(3-pyridyl)aminomethyl-2-(2-methylphenyl)benzoyl]methionine Lithium Salt] | 98%

Same assay, conditions: read-out: % inhibition at 0.1 μM

Row | Compound | inhibition at 0.1 µM
31 | CSCC[C@H](NC(=O)c1ccc(/C=C(\C(=O)OC(C)(C)C)c2cccnc2)cc1-c1ccccc1C)C(=O)O [Example 1078, N-[4-(Z-2-t-Butoxycarbonyl-2-pyrid-3-ylethenyl)-2-(2-methylphenyl)benzoyl]methionine, Lithium Salt] | 86%

Same assay, conditions: read-out: % inhibition at 1 × 10^−7 M

Row | Compound | inhibition at 0.1 µM
32 | CSCC[C@H](NC(=O)c1ccc(C=Cc2ccc(Oc3ccccc3)nc2)cc1-c1ccccc1C)C(=O)O [Example 800, N-[4-(2-(6-Phenyloxypyrid-3-yl)ethen-1-yl)-2-(2-methylphenyl)benzoyl]methionine Lithium Salt] | 74%
33 | CSCC[C@H](NC(=O)c1ccc(CCc2ccc(Oc3ccccc3)nc2)cc1-c1ccccc1C)C(=O)O [Example 801, N-[4-(2-(6-Phenyloxypyrid-3-yl)ethyl)-2-(2-methylphenyl)benzoy]methionine Lithium Salt] | 87%
34 | CSCC[C@H](NC(=O)c1ccc(/C=C/c2ccc(Oc3ccccc3Cl)nc2)cc1-c1ccccc1C)C(=O)O [Example 802, Lithium Salt] | 88%
35 | CSCC[C@H](NC(=O)c1ccc(COc2cccnc2)cc1-c1c(C)noc1C)C(=O)O [Example 823] | 75%

Same assay, conditions: read-out: % inhibition at 1 × 10^−8 M

Row | Compound | inhibition at 0.01 µM
36 | CSCC[C@H](NC(=O)c1ccc(/C=C/c2cnccc2C(O)C23CC4CC(CC(C4)C2)C3)cc1-c1ccccc1C)C(=O)O (stereo partly shown) [Example 803, Lithium Salt] | 95%
37 | CSCC[C@H](NC(=O)c1ccc(/C=C/c2cnccc2C(O)(c2ccccc2)c2ccccc2)cc1-c1ccccc1C)C(=O)O [Example 805, Lithium Salt] | 96%
